Results reported in patent publication US11566039B2, “Lincosamide antibiotics and uses thereof” (President and Fellows of Harvard College, priority 2017, dated 2023).
Values after ≈ are worked out from the molar mass of the structure shown. Read-outs that look alike come from different tables or passages of the source.

Assays:
Type in all cases: cell-based
E. faecalis ATCC 29212 = assay: MIC against E. faecalis ATCC 29212
S. aureus BAA 977 iErmA = assay: MIC against S. aureus BAA 977 iErmA; conditions: Staphylococcus aureus, BAA977
S. pyogenes ATCC 19615 = assay: MIC against S. pyogenes ATCC 19615
E. coli MP-9 ΔTolC = assay: MIC against E. coli MP-9 ΔTolC
S. pneumoniae ATCC 49619 = assay: MIC against S. pneumoniae ATCC 49619
S. aureus ATCC 29213 = assay: MIC against S. aureus ATCC 29213
K. pneumoniae ATCC 10031 = assay: MIC against K. pneumoniae ATCC 10031
E. coli ATCC 25922 = assay: MIC against E. coli ATCC 25922
[1] = test system: S. aureus MP-549 msr(a) USA 300; assay: MIC against S. aureus MP-549 msr(a) USA 300
[2] = test system: E. coli MP-74 LptD mutant; assay: MIC against E. coli MP-74 LptD mutant
H. influenzae ATCC 49247 = assay: MIC against H. influenzae ATCC 49247
[3] = Enterococcus faecalis, ATCC29212, E. faecalis ATCC 29212, read-out: MIC
[4] = Streptococcus pyogenes, ATCC19615, S. pyogenes ATCC 19615, read-out: MIC
[5] = Streptococcus pneumoniae, ATCC49619, S. pneumoniae ATCC 49619, read-out: MIC
[6] = Staphylococcus aureus, ATCC29213, S. aureus ATCC 29213, read-out: MIC
[7] = Klebsiella pneumoniae, ATCC10031, read-out: MIC
[8] = Escherichia coli, ATCC25922, read-out: MIC
[9] = Staphylococcus aureus, USA300, S. aureus MP-549 msr(a) USA 300
[10] = Haemophilus influenzae, ATCC49247, H. influenzae ATCC 49247, read-out: MIC
[11] = S. aureus MP-549 msr(a) USA 300

Row | Compound | MIC (E. faecalis ATCC 29212; [3]) [µg/mL] | MIC (S. aureus BAA 977 iErmA) [µg/mL] | MIC (S. pyogenes ATCC 19615; [4]) [µg/mL] | MIC (E. coli MP-9 ΔTolC; Escherichia coli) [µg/mL] | MIC (S. pneumoniae ATCC 49619; [5]) [µg/mL] | MIC (S. aureus ATCC 29213; [6]) [µg/mL] | MIC (K. pneumoniae ATCC 10031; [7]) [µg/mL] | MIC (E. coli ATCC 25922; [8]) [µg/mL] | other results
1 | CCC[C@@H]1C[C@@H](C(=O)N[C@H]([C@H](C)NC2CC2)[C@H]2OC(SC)[C@H](O)C(O)C2O)N(C)C1 (stereo partly shown) [FSA-215028c] | > 64 | 32 (≈ 71.8 µM) | 8 (≈ 18 µM) | > 64 | 16 (≈ 35.9 µM) | 64 (≈ 144 µM) | > 64 | > 64 | –
2 | CCC[C@@H]1C[C@@H](C(=O)N2CCC[C@@H]2[C@H]2OC(SC)[C@H](O)C(O)C2O)N(C)C1 (stereo partly shown) [FSA-216092] | > 64 | – | > 64 | > 64 | > 64 | > 64 | > 64 | > 64 | MIC [1, 9]: > 64 µg/mL; MIC ([2]; Escherichia coli): > 64 µg/mL; MIC (H. influenzae ATCC 49247; [10]): > 64 µg/mL
3 | C=C[C@@H](NC(=O)[C@@H]1C[C@@H](CCC)CN1C)[C@H]1OC(SC)[C@H](O)C(O)C1O (stereo partly shown) [FSA-215031] | 32 (≈ 82.4 µM) | 8 (≈ 20.6 µM) | 2 (≈ 5.15 µM) | > 64 | 2 (≈ 5.15 µM) | 8 (≈ 20.6 µM) | > 64 | > 64 | –
4 | C=CC(C)(C)[C@@H](NC(=O)[C@@H]1C[C@@H](CCC)CN1C)[C@H]1OC(SC)[C@H](O)C(O)C1O (stereo partly shown) [FSA-217009] | 64 (≈ 149 µM) | – | 0.12 (≈ 0.279 µM) | > 64 | 0.5 (≈ 1.16 µM) | 0.25 (≈ 0.581 µM) | > 64 | > 64 | MIC [1, 9]: 0.25 µg/mL (≈ 0.581 µM); MIC ([2]; Escherichia coli): 32 µg/mL (≈ 74.3 µM); MIC (H. influenzae ATCC 49247; [10]): 64 µg/mL (≈ 149 µM)
5 | CCC[C@@H]1C[C@@H](C(=O)N[C@H]([C@H](C)NC(=O)CCN)[C@H]2OC(SC)[C@H](O)C(O)C2O)N(C)C1 (stereo partly shown) [FSA-215054] | > 64 | > 64 | 64 (≈ 134 µM) | > 64 | > 64 | > 64 | > 64 | > 64 | –
6 | CCC[C@@H]1C[C@@H](C(=O)N[C@H](CO)[C@H]2OC(SC)[C@H](O)C(O)C2O)N(C)C1 (stereo partly shown) [FSA-214043, 8-norlincomycin] | 64 (≈ 163 µM) | – | 8 (≈ 20.4 µM) | – | 4 (≈ 10.2 µM) | 32 (≈ 81.5 µM) | – | > 64 | –
7 | CCC[C@@H]1C[C@@H](C(=O)N[C@H](CNCc2ccc(F)cc2)[C@H]2OC(SC)[C@H](O)C(O)C2O)N(C)C1 (stereo partly shown) [FSA-214084] | > 64 | – | > 64 | – | > 64 | > 64 | – | > 64 | –
8 | CCC[C@@H]1C[C@@H](C(=O)N[C@@H]([C@H]2OC(SC)[C@H](O)C(O)C2O)C(C)(C)C(C)N=[N+]=[N-])N(C)C1 (single isomer, unassigned) [FSA-217021b] | – | – | – | – | – | – | – | – | MIC (E. faecalis ATCC 29212; E. faecalis ATCC 29212): 64 µg/mL (≈ 135 µM); MIC [1, 11]: 0.25 µg/mL (≈ 0.528 µM); MIC [2]: 8 µg/mL (≈ 16.9 µM); MIC (S. pyogenes ATCC 19615; S. pyogenes ATCC 19615): 0.12 µg/mL (≈ 0.253 µM); MIC (E. coli MP-9 ΔTolC): 32 µg/mL (≈ 67.6 µM); MIC (S. pneumoniae ATCC 49619; S. pneumoniae ATCC 49619): 0.12 µg/mL (≈ 0.253 µM); MIC (H. influenzae ATCC 49247; H. influenzae ATCC 49247): 32 µg/mL (≈ 67.6 µM); MIC (S. aureus ATCC 29213; S. aureus ATCC 29213): 0.25 µg/mL (≈ 0.528 µM); MIC (K. pneumoniae ATCC 10031): >64 µg/mL; MIC (E. coli ATCC 25922): >64 µg/mL
9 | CCC[C@@H]1C[C@@H](C(=O)N[C@@H]([C@H]2OC(SC)[C@H](O)C(O)C2O)C(C)(C)C(C)N=[N+]=[N-])N(C)C1 (single isomer, unassigned) [FSA-217021a] | > 64 | – | – | > 64 | – | – | > 64 | > 64 | MIC [1, 11]: 4 µg/mL (≈ 8.45 µM); MIC [2]: >64 µg/mL; MIC (S. pyogenes ATCC 19615; S. pyogenes ATCC 19615): 2 µg/mL (≈ 4.22 µM); MIC (S. pneumoniae ATCC 49619; S. pneumoniae ATCC 49619): 2 µg/mL (≈ 4.22 µM); MIC (H. influenzae ATCC 49247; [10]): > 64 µg/mL; MIC (S. aureus ATCC 29213; S. aureus ATCC 29213): 4 µg/mL (≈ 8.45 µM)
10 | CCC[C@@H]1C[C@@H](C(=O)N[C@H]([C@H](C)N=[N+]=[N-])[C@H]2OC(SC)[C@H](O)C(O)C2O)N(C)C1 (stereo partly drawn) [FSA-215038, 7-(S)-deoxyazidolincomycin] | 32 (≈ 74.1 µM) | 0.5 (≈ 1.16 µM) | 0.125 (≈ 0.29 µM) | > 64 | 0.25 (≈ 0.579 µM) | 0.25 (≈ 0.579 µM) | > 64 | > 64 | –
11 | CCC[C@@H]1C[C@@H](C(=O)N[C@H](Cn2cc(-c3ccnc(N)n3)nn2)[C@H]2OC(SC)[C@H](O)C(O)C2O)N(C)C1 (stereo partly shown) [FSA-215011] | > 64 | – | > 64 | – | 2 (≈ 3.73 µM) | > 64 | – | > 64 | –
12 | CCC[C@@H]1C[C@@H](C(=O)N[C@H](CNC2CC2)[C@H]2OC(SC)[C@H](O)[C@H](O)C2O)N(C)C1 (stereo partly shown) [FSA-214082b] | > 64 | – | > 64 | – | > 64 | > 64 | – | > 64 | –
13 | CCC[C@@H]1C[C@@H](C(=O)N[C@H](CNCC(F)(F)F)[C@H]2OC(SC)[C@H](O)C(O)C2O)N(C)C1 (stereo partly shown) [FSA-214099] | > 64 | – | 32 (≈ 67.6 µM) | – | 16 (≈ 33.8 µM) | 64 (≈ 135 µM) | – | > 64 | –
